Experimental data from patent US8598122B2, “Antagonistic peptides for frizzled-1 and frizzled-2” (Universiteit Maastricht, priority 2009, dated 2013).
Where a SMILES comes first, the peptide text is derived from it. Bridges are numbered along the chain shown (N, C = ends). Where no end group is shown, it is not given here. rhodamine = not defined here

How the values were obtained:
frizzled-1 (rFzd-1) = biological target: T1, frizzled-1 (rFzd-1) (Rattus norvegicus, UniProt Q08463); assay: Activity assay: Wnt3a-induced luciferase (superTOPflash) in HEK cells transfected with frizzled-1; format: cell-based; conditions: for Blocking of Wnt3a-induced luciferase activity, rFzd-1: peptide 1.10^−8 M
T1 construct: expressed in transfected cells; host or cells: HEK293 superTOPflash (human embryonic kidney), transient, pcDNA3.1/hygro
Description: (§1) Human embryonic kidney (HEK) cells were used for screening. These cells have a luciferase construct stably transfected into the genome (see FIG. 2A), such that when the frizzled receptor is activated and β-catenin is increased, the luciferase is activated by transcription and light can be measured.
(§2) The peptides were tested by transfecting the frizzled-1 or the frizzled-2 receptor and addition of UM206(S-S) to the cell culture. For testing antagonistic activity, UM206 was added and the natural ligand Wnt3a was added, which is a natural stimulus for the canonical pathway.
(§3) Day 2: Transfection 12-well plates • heat Fugene6 and DNA 15 minutes at RT • 2 ml serum-free medium in tube • add 3μl fugene • add 2 μg DNA • incubate 30 minutes at RT • wash with PBS • add 50 μtransfectiemix • add 1 ml antibiotica-free medium
(§4) Day 3: Add conditioned medium or UM206
(§5) Day 4: Luciferase activity measurements • remove medium • wash with PBS • add 500 μl ⅕ lysisbuffer • shake for 60 minutes • centrifuge in tube • 20 μl lysaat and 50 μl luciferase in new tube for measurement • vortex • measure
(§6) To determine the inhibitory constant of UM206-8, HEK293-superTOPflash cells were transfected with either rFzd-1 or -2 and incubated with Wnt3a (10^−9M) in the presence of increasing concentrations of either of the peptides (FIG. 15). For UM206, a biphasic inhibition curve was observed that was best fitted with a two-binding-state model.
(§7) The cell lines were cultured in 75 cm^2 culture flasks (Corning, Schiphol, the Netherlands) in Dulbeco's modified essential medium with L-glutamine (2 mM), 10% fetal calf serum (Invitrogen, Merelbeke, Belgium), and 1% gentamycin (Sigma-Aldrich, Zwijndrecht, The Netherlands). Before starting the experiment, the cell lines were treated with plasmocin 25 μg/ml (Invivogen, Toulose, France) and tested with a mycoalert mycoplasma detection kit (Lonza, Rockland Me., USA). Cells were transiently transfected with Fugene6 (Roche, Indianapolis Ind., USA) with plasmid DNA, pcDNA3.1/hygro (Invitrogen) with frizzled-1/2/4 or Wnts 3a-5a or with pcDNA3.0 (Invitrogen) containing the β-catenin or frizzled-5 sequence. After transfection, the cells were cultured for 24 hours in conditioned medium, collected from the cultured L-cells, L-cells with Wnt3a or 5a (Invitrogen). At the same moment the antagonist was added.

frizzled-2 (rFzd-2) = biological target: T2, frizzled-2 (rFzd-2) (Rattus norvegicus, UniProt Q08464); assay: Activity assay: Wnt3a-induced luciferase (superTOPflash) in HEK cells transfected with frizzled-2; format: cell-based; conditions: for Blocking of Wnt3a-induced luciferase activity, rFzd-2: peptide 1.10^−8 M
T2 construct: expressed in transfected cells; host or cells: HEK293 superTOPflash (human embryonic kidney), transient, pcDNA3.1/hygro
Description: as §1, §2, §3, §4, §5, §6, §7

frizzled receptor = assay: Activity on the frizzled receptor (activity assay of Example 1), result in words; format: cell-based
Description: as §1, §2
Analogues of UM206 were prepared by solid phase peptide synthesis. Each amino acid residue was sequentially replaced by an alanine residue and antagonistic activity of the analogue was tested as described in the activity assay of Example 1. […] Titles indicate which amino acid residue was substituted by an alanine residue.

hFzd-4 = biological target: T3, hFzd-4 (Homo sapiens, UniProt Q9ULV1); assay: Luciferase activity in HEK293 superTOPflash cells overexpressing hFzd-4; format: cell-based; conditions: FIG. 3, Panel F
T3 construct: expressed in transfected cells; host or cells: HEK293 superTOPflash, transient, pcDNA3.1/hygro
T3 sequence (Q9ULV1 37-537): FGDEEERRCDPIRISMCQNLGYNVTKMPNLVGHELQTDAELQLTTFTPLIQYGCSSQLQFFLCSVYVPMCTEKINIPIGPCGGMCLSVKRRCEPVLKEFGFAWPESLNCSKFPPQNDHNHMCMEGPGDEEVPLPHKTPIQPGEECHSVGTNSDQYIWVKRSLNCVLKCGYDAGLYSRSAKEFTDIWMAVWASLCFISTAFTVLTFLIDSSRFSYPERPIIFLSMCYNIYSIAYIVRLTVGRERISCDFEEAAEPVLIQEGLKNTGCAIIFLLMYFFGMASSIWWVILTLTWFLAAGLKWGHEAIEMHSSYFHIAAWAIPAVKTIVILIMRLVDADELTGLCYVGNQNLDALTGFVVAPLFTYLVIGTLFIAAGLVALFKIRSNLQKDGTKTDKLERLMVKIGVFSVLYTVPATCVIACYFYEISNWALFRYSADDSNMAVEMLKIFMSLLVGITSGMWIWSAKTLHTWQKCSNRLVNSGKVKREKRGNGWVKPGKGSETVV
Description: (§8) In FIG. 3, Panel E, the efficacy of UM206 to block the Wnt3a-induced activation of luciferase activity in HEK293 superTOPflash cells transfected with different Fzds is shown.
as §7

hFzd-5 = biological target: T4, hFzd-5 (Homo sapiens, UniProt Q13467); assay: Luciferase activity in HEK293 superTOPflash cells overexpressing hFzd-5; format: cell-based; conditions: FIG. 3, Panel F
T4 construct: expressed in transfected cells; host or cells: HEK293 superTOPflash, transient, pcDNA3.0
Description: as §8, §7

[1] = tested on: Wnt/Fzd signal transduction cascade; assay: Luciferase activity in HEK293-superTOPflash cells (Wnt/Fzd signal transduction cascade); format: cell-based, human; conditions: for Luciferase activity induced by the peptide by itself: without Wnt3a
Description: as §1
Three areas of high homology that contained two cysteines are underlined (UM207), (UM208) and (UM206). In FIGS. 9B through 9D, the inhibitory effect of these three peptides on Wnt3a-induced luciferase activity in HEK293-superTOPflash is shown. […] Again, the peptides by themselves had no effect on the luciferase activity.

Fzd-1 and -2 = assay: UM206-Rhodamine binding to frozen sections of mouse kidney and gut and its blocking; conditions: 1.10^−8 M
Description: Specificity of the binding site was confirmed by prior incubation of the tissue sections with UM207 (1.10^−8 M) or recombinant Wnt3a (1.10^−8 M).
One-half of the hearts of the mice was embedded in paraffin and cut in 4 μm sections. The paraffin sections were rehydrated and washed in PBS. One section was stained with AZAN, allowing an accurate determination of the infarct size. To visualize the myofibroblasts in the infarct area, the sections were incubated with an antibody directed against a-smooth muscle actin (Sigma-Aldrich), followed by incubation with the peroxidase-conjugated secondary antibody (Vector laboratories). Nuclei were visualized by hematoxylin. Photos were taken with a Leica (CTR500, 63x/0.85) camera and analyzed with the Quantimet program (QWin/QGo). An examiner blinded to the groups of the animals obtained all measurements. For the experiments with Rhodamine-labeled UM206, frozen sections (4 μm) of mouse kidney and small intestine were used.

[2] = tested on: C-FIT cells (cardiac fibroblasts immortalized with telomerase); assay: Migration (wound/scratch) assay with C-FIT cells overexpressing Fzd-1 or -2; format: cell-based, rat
Description: For this assay, we used rat cardiac fibroblasts, which were immortalized with telomerase, the C-FIT cell line. This cell line was characterized previously and resembles features of primary cardiac fibroblasts. C-FIT cells were plated, treated when they were 70% confluent and a wound was made with a pipette tip at the moment of 100% confluence.
This assay was first tested with the natural ligand Wnt3a, in combination with frizzled-1 and -2 overexpression. […] Next step was to see whether the antagonist could counteract this. (See FIG. 4.)
Day 1: • Plate cells in 12-well plates
Day 2: • Transfection (see protocol)
Day 3: • Addition of conditioned medium
Day 4: • Make a scratch. This is time point zero.
Making pictures every six hours and analyzing the scratch width.
Cells were plated on day 0, and cultured until 70% confluence before transfection or treatment. Migration assays started 48 hours after transfection and/or treatment. The time point where the scratch was made, is indicated as 0 hours. Scratch width was measured at this time point, and also after 6, 12, and 24 hours.

T1 sequence (Q08463 69-641): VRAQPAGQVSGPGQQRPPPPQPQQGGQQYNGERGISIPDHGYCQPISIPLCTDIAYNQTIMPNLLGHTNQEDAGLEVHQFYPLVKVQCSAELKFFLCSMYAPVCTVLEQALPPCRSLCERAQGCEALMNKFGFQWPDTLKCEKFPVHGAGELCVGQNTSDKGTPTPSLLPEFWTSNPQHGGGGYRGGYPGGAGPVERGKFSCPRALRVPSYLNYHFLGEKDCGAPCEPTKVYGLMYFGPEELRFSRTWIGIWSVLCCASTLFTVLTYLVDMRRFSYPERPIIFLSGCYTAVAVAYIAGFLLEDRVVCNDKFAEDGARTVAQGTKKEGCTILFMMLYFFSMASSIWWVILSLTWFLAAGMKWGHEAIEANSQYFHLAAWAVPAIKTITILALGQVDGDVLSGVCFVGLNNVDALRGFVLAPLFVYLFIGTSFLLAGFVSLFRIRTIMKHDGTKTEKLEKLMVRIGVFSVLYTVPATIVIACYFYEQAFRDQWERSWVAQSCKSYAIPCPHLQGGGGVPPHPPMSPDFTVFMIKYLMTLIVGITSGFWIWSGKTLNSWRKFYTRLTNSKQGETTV
T2 sequence (Q08464 29-570): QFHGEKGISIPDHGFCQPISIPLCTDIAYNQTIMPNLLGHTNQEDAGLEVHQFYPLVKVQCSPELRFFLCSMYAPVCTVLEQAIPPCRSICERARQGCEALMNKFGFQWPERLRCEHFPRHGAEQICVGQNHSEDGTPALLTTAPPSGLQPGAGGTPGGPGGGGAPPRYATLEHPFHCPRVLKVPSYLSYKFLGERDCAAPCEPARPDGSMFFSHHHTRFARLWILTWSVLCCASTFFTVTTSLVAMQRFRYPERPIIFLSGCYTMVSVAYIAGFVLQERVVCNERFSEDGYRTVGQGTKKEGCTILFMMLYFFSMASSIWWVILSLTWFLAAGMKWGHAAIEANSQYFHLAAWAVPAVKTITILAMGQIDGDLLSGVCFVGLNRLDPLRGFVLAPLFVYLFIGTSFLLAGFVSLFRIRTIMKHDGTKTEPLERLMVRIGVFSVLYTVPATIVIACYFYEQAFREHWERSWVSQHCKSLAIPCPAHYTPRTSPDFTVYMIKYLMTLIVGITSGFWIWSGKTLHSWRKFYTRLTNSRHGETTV
T4 sequence (Q13467 27-585): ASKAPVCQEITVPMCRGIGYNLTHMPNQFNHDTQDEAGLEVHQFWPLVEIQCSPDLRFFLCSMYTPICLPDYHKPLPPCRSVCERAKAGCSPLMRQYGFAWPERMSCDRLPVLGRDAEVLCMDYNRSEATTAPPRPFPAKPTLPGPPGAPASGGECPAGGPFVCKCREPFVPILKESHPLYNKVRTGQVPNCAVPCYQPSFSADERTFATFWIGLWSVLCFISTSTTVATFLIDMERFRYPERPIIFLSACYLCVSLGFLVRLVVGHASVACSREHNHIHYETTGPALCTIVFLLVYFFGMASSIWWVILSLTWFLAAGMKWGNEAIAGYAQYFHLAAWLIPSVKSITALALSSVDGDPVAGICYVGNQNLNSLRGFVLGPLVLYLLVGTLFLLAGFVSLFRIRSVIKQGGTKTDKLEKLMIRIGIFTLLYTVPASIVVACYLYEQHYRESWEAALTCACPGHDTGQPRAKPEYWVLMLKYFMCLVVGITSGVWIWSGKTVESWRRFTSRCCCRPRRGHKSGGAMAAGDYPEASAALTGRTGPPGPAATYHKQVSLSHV

Molecule: CC[C@H](C)[C@H](NC(=O)CNC(=O)[C@H](Cc1c[nH]cn1)NC(=O)[C@H](CO)NC(=O)[C@H](CO)NC(=O)[C@@H](NC(=O)[C@H](CC(N)=O)NC(=O)[C@H](CS)NC(C)=O)C(C)C)C(=O)N[C@@H](CC(=O)O)C(=O)NCC(=O)N[C@@H](CS)C(=O)N[C@@H](CC(=O)O)C(=O)N[C@@H](CC(C)C)C(N)=O [CNVSSHGIDGCDL] (Ac-CNVSSHGIDGCDL-NH2; N-terminus assumed)
- % of inhibition for Fzd-1 (frizzled-1 (rFzd-1); 1.0): 45.32%
- % of inhibition for Fzd-2 (frizzled-2 (rFzd-2); 1.0): 62.41%
- Activity on the frizzled receptor (in words) (frizzled receptor): showed antagonistic properties too, albeit that the potency was lower than that of UM206

Molecule: CSCC[C@@H]1NC(=O)CNC(=O)[C@H](CCC(=O)O)NC(=O)[C@H](CO)NC(=O)[C@H]([C@@H](C)O)NC(=O)[C@H](CCCCN)NC(=O)[C@H](CC(N)=O)NC(=O)[C@@H](NC(C)=O)CSSC[C@@H](C(=O)N[C@@H](CCC(=O)O)C(=O)N[C@@H](CC(C)C)C(N)=O)NC(=O)CNC(=O)[C@H](CC(=O)O)NC1=O [UM206(S-S)] (Ac-CNKTSEGMDGCEL-NH2; disulfide 1-11)
- Agonist activity, frizzled-1 (frizzled-1 (rFzd-1); FIG. 3, Panel F): specific agonist
- Agonist activity, frizzled-2 (frizzled-2 (rFzd-2); FIG. 3, Panel F): specific agonist
- Agonist activity, frizzled-4 (hFzd-4): not for frizzled-4 or frizzled-5
- Agonist activity, frizzled-5 (hFzd-5): not for frizzled-4 or frizzled-5

Molecule: CC[C@H](C)[C@H](NC(=O)CNC(C)=O)C(=O)N[C@@H](CCCCN)C(=O)N[C@@H](CCC(=O)O)C(=O)N[C@@H](CS)C(=O)N[C@@H](CCC(N)=O)C(=O)N[C@@H](Cc1ccc(O)cc1)C(=O)N[C@@H](CCC(N)=O)C(=O)N[C@@H](Cc1ccccc1)C(=O)N[C@@H](CCCNC(=N)N)C(=O)N[C@@H](Cc1c[nH]cn1)C(=O)N[C@@H](CCCNC(=N)N)C(=O)N[C@@H](CCCNC(=N)N)C(=O)N[C@@H](Cc1c[nH]c2ccccc12)C(=O)N[C@@H](CC(N)=O)C(=O)N[C@@H](CS)C(=O)N[C@@H](CO)C(=O)N[C@H](C(=O)N[C@H](C(=O)N[C@@H](CC(=O)O)C(N)=O)C(C)C)[C@@H](C)O [UM207] (Ac-GIKECQYQFRHRRWNCSTVD-NH2)
- Blocking of Wnt3a-induced luciferase activity, rFzd-1 (frizzled-1 (rFzd-1)): blocked almost completely
- Blocking of Wnt3a-induced luciferase activity, rFzd-2 (frizzled-2 (rFzd-2)): blocked almost completely
- Activity on the frizzled receptor (in words) (frizzled receptor): potent antagonist
- Luciferase activity induced by the peptide by itself [1]: none of the three peptides by itself could induce an increase in luciferase activity
- Blocking of UM206-rhodamine binding by prior incubation (Fzd-1 and -2): completely abolished the binding

Molecule: CC(=O)NCC(=O)N[C@@H](CO)C(=O)N[C@@H](CS)C(=O)N[C@@H](CO)C(=O)N[C@@H](CC(C)C)C(=O)N[C@@H](CCCCN)C(=O)N[C@H](C(=O)N[C@@H](CS)C(=O)N[C@@H](Cc1c[nH]c2ccccc12)C(=O)N[C@@H](CC(C)C)C(=O)N[C@@H](CCC(N)=O)C(=O)N[C@@H](CC(C)C)C(=O)N[C@@H](C)C(=O)N[C@@H](CC(=O)O)C(N)=O)[C@@H](C)O [UM208, GSCSLKTCWLQLAD] (Ac-GSCSLKTCWLQLAD-NH2)
- Blocking of Wnt3a-induced luciferase activity, rFzd-1 (frizzled-1 (rFzd-1)): blocked almost completely
- Blocking of Wnt3a-induced luciferase activity, rFzd-2 (frizzled-2 (rFzd-2)): blocked almost completely
- Luciferase activity induced by the peptide by itself [1]: none of the three peptides by itself could induce an increase in luciferase activity

Molecule: UM206-rhodamine: UM206 with rhodamine attached to Lys^3 (Ac-CNK(rhodamine)TSEGMDGCEL-NH2; reading uncertain; also: printed as Ac-Cys-Asn-Lys-Thr-Ser-Glu-Gly-Met-Asp-Gly-Cys-Glu-Leu-NH2)
- Staining of frozen sections of mouse kidney and gut (Fzd-1 and -2; 15 minutes, two-foton microscopy): staining of tubular epithelium and panneth cells

Molecule: UM207 S-S: UM207 forced to form a cyclic structure by inducing a S-S bond between the two cysteine residues (GIKECQYQFRHRRWNCSTVD-NH2; disulfide 5-16 (inferred); not fully specified (N-terminus))
- Activity on the frizzled receptor (in words) (frizzled receptor): potent agonist

Molecule: Wnt3a
- Increase of the luciferase activity by natural ligand in combination with frizzled-2 (frizzled-2 (rFzd-2); concentration-dependent): twelve-fold
- Increase of luciferase activity on addition of Wnt3a ([1]; HEK293-superTOPflash, no Fzd transfection): ~450 fold
- Effect of Wnt protein on migration of CFIT overexpressing rFzd-1 or -2 [2]: attenuated the migration
- Blocking of UM206-rhodamine binding by prior incubation (Fzd-1 and -2): completely abolished the binding

B1: Wnt5a: natural ligand (Wnt protein) for frizzled-1 and frizzled-2 (protein, listed as Homo sapiens)
chain: FFLMALATFFSFAQVVIEANSWWSLGMNNPVQMSEVHIIGAQPLCSQLAGLSQGQKKLCHLYQDHMQYIGEGAKTGIKECQYQFRHRRWNCSTVDNTSVFGRVMQIGSRETAFTYAVSAAGVVNAMSRACREGELSTCGCSRAARPKDLPRDWLWGGCGDNIDYGYRFAKEFVDARERERIHAKGSYESARILMNLHNNEAGRRTVYNLADVACKCHGVSGSCSLKTCWLQLADFRKVGDALKEKYDSAAAMRLNSRGKLVQVNSRFNSPTTQDLVYIDPSPDYCVRNESTGSLGTQGRLCNKTSEGMDGCELMCCGRGYDQFKTVQTERCHCKFHWCCYVKCKKCTEIVDQFVCK
- Effect of Wnt protein on migration of CFIT overexpressing rFzd-1 or -2 [2]: attenuated the migration
